Assay results as given in PMC12649549, “Sequence Permutation Generated Lysine and Tryptophan-Rich Antimicrobial Peptides with Enhanced Therapeutic Index” (Antibiotics, 2025).
Like-named read-outs stand apart in the source and are kept apart here.

What was measured:
[1] = tested on: A. baumannii 14B00100 (Acinetobacter sp., BCRC number 14B0100)
In short: (§1)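 Salt and pH tolerance was assessed by determining MICs in LYM medium containing 50–300 mM NaCl, 0.5–2.5 mM MgCl2, or at pH 4.5–6.5, alongside MH broth. The inoculum was 5 × 10^5 CFU/mL.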

[2] = tested on: S. aureus ATCC 33591
In short: as §1

[3] = tested on: S. aureus ATCC 33593
In short: as §1

[4] = tested on: S. aureus ATCC 33592
Procedure: The antibacterial and salt-resistant activity of the peptides was tested using Escherichia coli (ATCC 25922), Pseudomonas aeruginosa Migula (ATCC 27853), Acinetobacter sp. (BCRC number 14B0091, BCRC number 14B0097, and BCRC number 14B0100), and Staphylococcus aureus sp. strains (ATCC 25923, ATCC 33591, ATCC 33592, ATCC 33593, and ATCC 6538). All bacteria were obtained from the Food Industry Research and Development Institute (Hsinchu, Taiwan) and cultured in sterilized Müller-Hinton (MH) broth at 37 °C and 200 rpm for 8 h. The inoculum concentrations were determined by measuring the optical density at 600 nm (OD 600 = 1, approximately 10^8 CFU/mL) using an Ultrospec 2100 pro UV-Visible spectrophotometer (Biochrom Ltd., Cambridge, UK) after 8 h of culture.
The antibacterial activities of the peptides in Müller-Hinton (MH) broth and modified LYM broth were determined using the standard broth microdilution method as per Clinical and Laboratory Standards Institute (CLSI) guidelines. The LYM broth was prepared with specific components and adjusted to different conditions, including varying concentrations of NaCl and MgCl2, and different pH levels. To prepare the LYM broth, 5.4 mM KCl, 5.6 mM Na2HPO4, 0.5 mM MgSO4, and 1.0 mM sodium citrate were added. Additionally, 0.4 mg of ZnCl2, 2.0 mg of FeCl3·6H2O, 0.1 mg of CuSO4·5H2O, 0.1 mg of MnSO4·H2O, 0.1 mg of Na2B4O7∙10H2O, 700 mg of amino acid mixtures without tryptophan (Takara Bio Inc., San Jose, CA, USA), and 20 mg of L-tryptophan were added per liter of medium. The pH was adjusted to 7.4, and a vitamin mixture (100X, Sigma) and glucose concentration of 2% were added. […] Bacterial strains were incubated in MH broth overnight, regrown, and diluted to a final concentration of 5 × 10^5 CFU/mL. Peptides were added to each well at final concentrations of 50, 25, 12.5, 6.25, 3.13, 1.56, and 0.78 µg/mL, and 99 µL of diluted microbes was loaded into each well of a polypropylene 96-well plate. […] The Morpheus HeatMap software (https://software.broadinstitute.org/morpheus/) was used to display MIC values on a color scale. All experiments were independently repeated three times.

[5] = tested on: Gram-positive bacteria; test: Geometric mean MIC and therapeutic index, Gram-positive bacteria; assay type: cell-based; conditions: Gram-positive bacteria
Procedure: In this study, we aimed to investigate the potential of W5K series peptides for therapeutic use. To evaluate their efficacy for antibacterial therapy, we used the Therapeutic Index (TI) as a measure of their cell selectivity. The TI was calculated as the ratio of the concentration causing 10% hemolysis of human red blood cells (HC10) to the geometric mean minimum inhibitory concentration (GM) of the peptides against both Gram-negative and Gram-positive bacteria. This parameter was used to quantitatively assess the balance between antibacterial potency and cytotoxicity among the W5K derivatives.
The antibacterial activities of the peptides in Müller-Hinton (MH) broth and modified LYM broth were determined using the standard broth microdilution method as per Clinical and Laboratory Standards Institute (CLSI) guidelines. The LYM broth was prepared with specific components and adjusted to different conditions, including varying concentrations of NaCl and MgCl2, and different pH levels. To prepare the LYM broth, 5.4 mM KCl, 5.6 mM Na2HPO4, 0.5 mM MgSO4, and 1.0 mM sodium citrate were added. Additionally, 0.4 mg of ZnCl2, 2.0 mg of FeCl3·6H2O, 0.1 mg of CuSO4·5H2O, 0.1 mg of MnSO4·H2O, 0.1 mg of Na2B4O7∙10H2O, 700 mg of amino acid mixtures without tryptophan (Takara Bio Inc., San Jose, CA, USA), and 20 mg of L-tryptophan were added per liter of medium. The pH was adjusted to 7.4, and a vitamin mixture (100X, Sigma) and glucose concentration of 2% were added. For different conditions of LYM broth, NaCl concentrations of 300, 200, 150, and 50 mM, MgCl2 concentrations of 2.5, 1.5, and 0.5 mM, and pH levels of 6.5, 5.5, and 4.5 were adjusted. Bacterial strains were incubated in MH broth overnight, regrown, and diluted to a final concentration of 5 × 10^5 CFU/mL. Peptides were added to each well at final concentrations of 50, 25, 12.5, 6.25, 3.13, 1.56, and 0.78 µg/mL, and 99 µL of diluted microbes was loaded into each well of a polypropylene 96-well plate. […] The Morpheus HeatMap software (https://software.broadinstitute.org/morpheus/) was used to display MIC values on a color scale. All experiments were independently repeated three times.

[6] = LYM broth, 0 mM NaCl, 16 h, 37 °C
[7] = LYM broth, 50 mM NaCl, 16 h, 37 °C
[8] = LYM broth, 100 mM NaCl, 16 h, 37 °C
[9] = LYM broth, 200 mM (NaCl), 16 h, 37 °C
[10] = LYM broth, 300 mM (NaCl), 16 h, 37 °C
[11] = MH broth, 5 × 10^5 CFU/mL, 16 h, 37 °C, repeated three times

Ac-KWLKWLAKKKKWR-NH2 [Peptide W5K04] showed an MIC [1, 6] of 1.56 µg/mL, an MIC ([1]; LYM broth, 0.5 mM MgCl2) of 1.56 µg/mL and an MIC ([1]; LYM broth, 1.5 mM MgCl2) of 3.13 µg/mL. The MIC ([1]; LYM broth, 2.5 mM MgCl2) was 3.13 µg/mL, the MIC [1, 7] was 1.56 µg/mL and the MIC [1, 8] was 3.13 µg/mL. The MIC [1, 9] was 12.5 µg/mL, the MIC [1, 10] was 25 µg/mL and the MIC ([1]; LYM broth, pH 4.5) was 1.56 µg/mL. It also gave an MIC ([1]; LYM broth, pH 5.5) of 1.56 µg/mL, an MIC ([1]; LYM broth, pH 6.5) of 1.56 µg/mL and an MIC [1, 11] of 12.5 µg/mL. The MIC [2, 6] was 25 µg/mL, the MIC ([2]; LYM broth, 0.5 mM MgCl2) was 25 µg/mL and the MIC ([2]; LYM broth, 1.5 mM MgCl2) was 25 µg/mL. The MIC ([2]; LYM broth, 2.5 mM MgCl2) was 50 µg/mL, the MIC [2, 7] was 50 µg/mL and the MIC [2, 8] was 50 µg/mL. The MIC [2, 9] was greater than 50 µg/mL, the MIC [2, 10] was greater than 50 µg/mL and the MIC ([2]; LYM broth, pH 4.5) was 25 µg/mL. It also gave an MIC ([2]; LYM broth, pH 5.5) of 12.5 µg/mL, an MIC ([2]; LYM broth, pH 6.5) of 12.5 µg/mL and an MIC [2, 11] greater than 50 µg/mL. It also gave an MIC [3, 6] of 25 µg/mL, an MIC ([3]; LYM broth, 0.5 mM MgCl2) of 25 µg/mL and an MIC ([3]; LYM broth, 1.5 mM MgCl2) of 25 µg/mL. For the same substance, the MIC ([3]; LYM broth, 2.5 mM MgCl2) was 25 µg/mL, the MIC [3, 7] was 25 µg/mL and the MIC [3, 8] was 50 µg/mL. The MIC [3, 9] was greater than 50 µg/mL, the MIC [3, 10] was greater than 50 µg/mL and the MIC ([3]; LYM broth, pH 4.5) was 25 µg/mL. It also gave an MIC ([3]; LYM broth, pH 5.5) of 25 µg/mL, an MIC ([3]; LYM broth, pH 6.5) of 25 µg/mL and an MIC [3, 11] greater than 50 µg/mL. For the same substance, the MIC [4, 6] was 25 µg/mL, the MIC ([4]; LYM broth, 0.5 mM MgCl2) was 25 µg/mL and the MIC ([4]; LYM broth, 1.5 mM MgCl2) was 25 µg/mL. For the same substance, the MIC ([4]; LYM broth, 2.5 mM MgCl2) was 25 µg/mL, the MIC [4, 7] was 25 µg/mL and the MIC [4, 8] was 50 µg/mL. It also gave an MIC [4, 9] greater than 50 µg/mL, an MIC [4, 10] greater than 50 µg/mL and an MIC ([4]; LYM broth, pH 4.5) of 25 µg/mL. It also gave an MIC ([4]; LYM broth, pH 5.5) of 25 µg/mL, an MIC ([4]; LYM broth, pH 6.5) of 12.5 µg/mL and an MIC [4, 11] greater than 50 µg/mL. For the same substance, the “GM G+ (geometric mean of the MIC values)” value ([5]; MH broth, MIC >50 µg/mL counted as 100 µg/mL) was 66.0 µg/mL and the “Therapeutic Index (TI) G+” value ([5]; HC10/GM) was 1.6.
